According to ChEMBL document CHEMBL1201862, “PubChem BioAssay data set” (2004):
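Cultured in 96-well plates, cells were exposed to test compound for 48 hours across five concentrations. The concentration for 50% growth inhibition is given as GI50.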 Calls of active or inactive are those of the source. Rule as the data show it: active = GI50 up to about 1.1 µM and inactive = higher.

Experiments:
Assay in all cases: NCI-60 cell line screen, 48 h
MCF7 = system: MCF7
IGROV-1 = system: IGROV-1
HOP-92 = system: HOP-92
Hs-578T = system: Hs-578T
SNB-75 = system: SNB-75
OVCAR-3 = system: OVCAR-3
U-251 = system: U-251
SN12C = system: SN12C
LOX IMVI = system: LOX IMVI
PC-3 = system: PC-3
A498 = system: A498
MDA-MB-231 = system: MDA-MB-231
HL-60 = system: HL-60
NCI-H460 = system: NCI-H460
UACC-62 = system: UACC-62
SW-620 = system: SW-620
RXF 393 = system: RXF 393
NCI-H23 = system: NCI-H23
DU-145 = system: DU-145
RPMI-8226 = system: RPMI-8226
T47D = system: T47D
MOLT-4 = system: MOLT-4
SF-268 = system: SF-268
SK-MEL-28 = system: SK-MEL-28
Malme-3M = system: Malme-3M
K562 = system: K562
786-0 = system: 786-0
CCRF-CEM = system: CCRF-CEM
BT-549 = system: BT-549
MDA-N = system: MDA-N
SR = system: SR
HCT-15 = system: HCT-15
SK-OV-3 = system: SK-OV-3
SNB-19 = system: SNB-19
CAKI-1 = system: CAKI-1
UACC-257 = system: UACC-257
KM12 = system: KM12
EKVX = system: EKVX
NCI-H522 = system: NCI-H522
OVCAR-5 = system: OVCAR-5
A549 = system: A549
OVCAR-4 = system: OVCAR-4
MDA-MB-435 = system: MDA-MB-435
HCC 2998 = system: HCC 2998
SK-MEL-2 = system: SK-MEL-2
OVCAR-8 = system: OVCAR-8
M14 = system: M14
NCI-H226 = system: NCI-H226
HT-29 = system: HT-29
COLO 205 = system: COLO 205
SK-MEL-5 = system: SK-MEL-5
NCI/ADR-RES = system: NCI/ADR-RES
TK-10 = system: TK-10
HCT-116 = system: HCT-116
HOP-62 = system: HOP-62
ACHN = system: ACHN
SF-295 = system: SF-295
UO-31 = system: UO-31
SF-539 = system: SF-539

O=C(O)/C=C/c1c2ccc(=O)c(O)c-2oc2c(O)c(O)ccc12
GI50 (MCF7): 17.2 µM (inactive)
GI50 (IGROV-1): 82.6 µM (inactive)
GI50 (HOP-92): > 100 µM (inactive)
GI50 (Hs-578T): 58.6 µM (inactive)
GI50 (SNB-75): 48 µM (inactive)
GI50 (OVCAR-3): 45 µM (inactive)
GI50 (U-251): 16.1 µM (inactive)
GI50 (SN12C): 15.3 µM (inactive)
GI50 (LOX IMVI): 23 µM (inactive)
GI50 (PC-3): > 100 µM (inactive)
GI50 (A498): > 100 µM (inactive)
GI50 (MDA-MB-231): 20.8 µM (inactive)
GI50 (HL-60): 82.2 µM (inactive)
GI50 (NCI-H460): > 100 µM (inactive)
GI50 (UACC-62): 50.1 µM (inactive)
GI50 (SW-620): 20.7 µM (inactive)
GI50 (RXF 393): > 100 µM (inactive)
GI50 (NCI-H23): > 100 µM (inactive)
GI50 (DU-145): > 100 µM (inactive)
GI50 (RPMI-8226): 23.2 µM (inactive)
GI50 (T47D): > 100 µM (inactive)
GI50 (MOLT-4): 18.9 µM (inactive)
GI50 (SF-268): > 100 µM (inactive)
GI50 (SK-MEL-28): > 100 µM (inactive)
GI50 (Malme-3M): > 100 µM (inactive)
GI50 (K562): 21.7 µM (inactive)
GI50 (786-0): 18.9 µM (inactive)
GI50 (CCRF-CEM): 9.59 µM (inactive)
GI50 (BT-549): 83.9 µM (inactive)
GI50 (MDA-N): 16.1 µM (inactive)
GI50 (SR): 31.8 µM (inactive)
GI50 (HCT-15): 61.9 µM
GI50 (SK-OV-3): 98.4 µM (inactive)
GI50 (SNB-19): > 100 µM (inactive)
GI50 (CAKI-1): > 100 µM (inactive)
GI50 (UACC-257): > 100 µM (inactive)
GI50 (KM12): 25.3 µM (inactive)
GI50 (EKVX): 24.9 µM (inactive)
GI50 (NCI-H522): > 100 µM (inactive)
GI50 (OVCAR-5): 78.2 µM (inactive)
GI50 (A549): 32.3 µM (inactive)
GI50 (OVCAR-4): 30.3 µM (inactive)
GI50 (MDA-MB-435): 17.4 µM (inactive)
GI50 (HCC 2998): > 100 µM (inactive)
GI50 (SK-MEL-2): 55.1 µM (inactive)
GI50 (OVCAR-8): 40.1 µM (inactive)
GI50 (M14): 47.4 µM (inactive)
GI50 (NCI-H226): 70.8 µM (inactive)
GI50 (HT-29): 63.7 µM (inactive)
GI50 (COLO 205): > 100 µM (inactive)
GI50 (SK-MEL-5): 54 µM (inactive)
GI50 (NCI/ADR-RES): 65.3 µM (inactive)
GI50 (TK-10): > 100 µM (inactive)
GI50 (HCT-116): 17 µM (inactive)
GI50 (HOP-62): 23.4 µM (inactive)
GI50 (ACHN): 30.8 µM (inactive)
GI50 (SF-295): 24.4 µM (inactive)
GI50 (UO-31): 33.9 µM (inactive)

CC1=C[C@@H]2[C@@H](CC(CO)=C[C@H]3[C@@H]4C(C)(C)[C@]4(OCC(C)C)[C@H](OCC(C)C)[C@@H](C)[C@]23O)C1=O
GI50 (MCF7): 2.56 µM (inactive)
GI50 (IGROV-1): 2.01 µM (inactive)
GI50 (HOP-92): 1.44 µM (inactive)
GI50 (Hs-578T): 0.9 µM (active)
GI50 (SNB-75): 2.97 µM (inactive)
GI50 (OVCAR-3): 2.17 µM (inactive)
GI50 (U-251): 1.5 µM (inactive)
GI50 (SN12C): 1.73 µM (inactive)
GI50 (LOX IMVI): 1.25 µM (inactive)
GI50 (PC-3): 1.49 µM (inactive)
GI50 (A498): 1.08 µM (active)
GI50 (MDA-MB-231): 1.39 µM (inactive)
GI50 (HL-60): 0.495 µM (active)
GI50 (NCI-H460): 0.465 µM (active)
GI50 (UACC-62): 1.43 µM (inactive)
GI50 (SW-620): 1.19 µM (inactive)
GI50 (RXF 393): 1.54 µM (inactive)
GI50 (NCI-H23): 1.91 µM (inactive)
GI50 (DU-145): 3.2 µM (inactive)
GI50 (T47D): 2.16 µM (inactive)
GI50 (MOLT-4): 0.646 µM (active)
GI50 (SF-268): 3.43 µM (inactive)
GI50 (SK-MEL-28): 1.3 µM (inactive)
GI50 (Malme-3M): 0.766 µM (active)
GI50 (SF-539): 0.975 µM (active)
GI50 (K562): 0.137 µM (active)
GI50 (786-0): 1.47 µM (inactive)
GI50 (CCRF-CEM): 0.741 µM (active)
GI50 (BT-549): 1.14 µM (inactive)
GI50 (MDA-N): 0.649 µM (active)
GI50 (SR): 1.14 µM (inactive)
GI50 (HCT-15): 1.42 µM
GI50 (SK-OV-3): > 8.32 µM (inactive)
GI50 (SNB-19): > 6.01 µM (inactive)
GI50 (CAKI-1): 1.38 µM (inactive)
GI50 (UACC-257): 1.62 µM (inactive)
GI50 (KM12): 2.16 µM (inactive)
GI50 (EKVX): 1.03 µM (active)
GI50 (NCI-H522): 2.2 µM (inactive)
GI50 (OVCAR-5): 2.23 µM (inactive)
GI50 (A549): 0.578 µM (active)
GI50 (OVCAR-4): 4.28 µM (inactive)
GI50 (MDA-MB-435): 0.426 µM (active)
GI50 (HCC 2998): 0.574 µM (active)
GI50 (SK-MEL-2): 2.1 µM (inactive)
GI50 (OVCAR-8): 1.73 µM (inactive)
GI50 (M14): 1.51 µM (inactive)
GI50 (NCI-H226): 1.36 µM (inactive)
GI50 (HT-29): 1.21 µM (inactive)
GI50 (COLO 205): 0.243 µM (active)
GI50 (SK-MEL-5): 1.11 µM (active)
GI50 (NCI/ADR-RES): 2.55 µM (inactive)
GI50 (TK-10): 1.82 µM (inactive)
GI50 (HCT-116): 2.04 µM (inactive)
GI50 (HOP-62): 0.206 µM (active)
GI50 (ACHN): 1.23 µM (inactive)
GI50 (SF-295): 0.92 µM (active)
GI50 (UO-31): 2.22 µM (inactive)

O=C1Cc2c(-c3ccccc3)cc(-c3ccc4ccccc4c3)nc2-c2ccccc2N1
GI50 (MCF7): 13.9 µM (inactive)
GI50 (IGROV-1): 1.93 µM (inactive)
GI50 (HOP-92): 4.05 µM (inactive)
GI50 (Hs-578T): 2.96 µM (inactive)
GI50 (SNB-75): 0.307 µM (active)
GI50 (OVCAR-3): 8.05 µM (inactive)
GI50 (U-251): 16.4 µM (inactive)
GI50 (SN12C): 6.22 µM (inactive)
GI50 (LOX IMVI): 16.7 µM (inactive)
GI50 (PC-3): 15.7 µM (inactive)
GI50 (A498): 12.7 µM (inactive)
GI50 (MDA-MB-231): 5.79 µM (inactive)
GI50 (NCI-H460): 11.4 µM (inactive)
GI50 (UACC-62): 10.7 µM (inactive)
GI50 (SW-620): 29.2 µM (inactive)
GI50 (RXF 393): 2.9 µM (inactive)
GI50 (NCI-H23): 6.4 µM (inactive)
GI50 (DU-145): 34.5 µM (inactive)
GI50 (RPMI-8226): 17.7 µM (inactive)
GI50 (T47D): 18 µM (inactive)
GI50 (MOLT-4): > 100 µM (inactive)
GI50 (SF-268): 4.29 µM (inactive)
GI50 (SK-MEL-28): > 100 µM (inactive)
GI50 (Malme-3M): 7.06 µM (inactive)
GI50 (SF-539): 4.7 µM (inactive)
GI50 (K562): 2.39 µM (inactive)
GI50 (786-0): 3.18 µM (inactive)
GI50 (CCRF-CEM): > 100 µM (inactive)
GI50 (BT-549): 27.4 µM (inactive)
GI50 (MDA-N): 8.53 µM (inactive)
GI50 (SR): 39.3 µM (inactive)
GI50 (HCT-15): 37.8 µM
GI50 (SK-OV-3): 6.64 µM (inactive)
GI50 (SNB-19): 3.06 µM (inactive)
GI50 (CAKI-1): 3.25 µM (inactive)
GI50 (UACC-257): 22.3 µM (inactive)
GI50 (KM12): 4.89 µM (inactive)
GI50 (EKVX): 7.16 µM (inactive)
GI50 (NCI-H522): 3.25 µM (inactive)
GI50 (OVCAR-5): 24.7 µM (inactive)
GI50 (A549): 14.9 µM (inactive)
GI50 (OVCAR-4): 2.9 µM (inactive)
GI50 (MDA-MB-435): 17.2 µM (inactive)
GI50 (HCC 2998): 22.6 µM (inactive)
GI50 (SK-MEL-2): 43.9 µM (inactive)
GI50 (OVCAR-8): 1.46 µM (inactive)
GI50 (M14): 9.2 µM (inactive)
GI50 (NCI-H226): 8.45 µM (inactive)
GI50 (HT-29): 3.31 µM (inactive)
GI50 (COLO 205): 31.9 µM (inactive)
GI50 (SK-MEL-5): 4.74 µM (inactive)
GI50 (NCI/ADR-RES): 13.2 µM (inactive)
GI50 (TK-10): 12.3 µM (inactive)
GI50 (HCT-116): 8.45 µM (inactive)
GI50 (HOP-62): 7.52 µM (inactive)
GI50 (ACHN): 3.72 µM (inactive)
GI50 (SF-295): 17.8 µM (inactive)
GI50 (UO-31): 17.3 µM (inactive)
